We go through one molecule from ChEMBL document CHEMBL5046240, “Design, synthesis, and evaluation of potent RIPK1 inhibitors with in vivo anti-inflammatory activity” (Eur J Med Chem, 2022).

The nature of data set [1]: Cmax in Sprague-Dawley rat at 2 mg/kg, iv measured upto 24 hrs by LC-MS/MS analysis. In kind it is ADME, organism-based. On the set-up: route intravenous, dose 2 mg/kg, time <=24. To be noted: in vivo.
In another data set the test system is HT-29. Briefly: Anti-necroptic activity in human HT-29 cells assessed as TNFalpha/Z-VAD (TSZ) induced necroptosis by measuring cell viability preincubated for 1 hr followed by TSZ addition ans measured after 24 hrs by celltiter-glo luminescent cell viability assay. In kind it is functional, cell-based.
The nature of data set [2]: Efflux ratio of permeability across basolateral to apical side over apical to basolateral side in human Caco-2 cells by LC-MS/MS analysis. Type of data set: ADME, cell-based. For orientation: Passage across Caco-2 layers is used to estimate intestinal permeability.
Data set [3] deals with Voltage-gated inwardly rectifying potassium channel KCNH2 (Homo sapiens, UniProt Q12809). Briefly: Inhibition of hERG expressed in CHO cells at -80 mV holding potential measured after 4mins by automated patch-clamp assay. In kind it is toxicity, cell-based. In general terms: The hERG channel carries a current that helps repolarise heart muscle cells.
The target of the next data set is T1, CYP1A2 (Homo sapiens, UniProt P05177).
T1 sequence (P05177 whole entry): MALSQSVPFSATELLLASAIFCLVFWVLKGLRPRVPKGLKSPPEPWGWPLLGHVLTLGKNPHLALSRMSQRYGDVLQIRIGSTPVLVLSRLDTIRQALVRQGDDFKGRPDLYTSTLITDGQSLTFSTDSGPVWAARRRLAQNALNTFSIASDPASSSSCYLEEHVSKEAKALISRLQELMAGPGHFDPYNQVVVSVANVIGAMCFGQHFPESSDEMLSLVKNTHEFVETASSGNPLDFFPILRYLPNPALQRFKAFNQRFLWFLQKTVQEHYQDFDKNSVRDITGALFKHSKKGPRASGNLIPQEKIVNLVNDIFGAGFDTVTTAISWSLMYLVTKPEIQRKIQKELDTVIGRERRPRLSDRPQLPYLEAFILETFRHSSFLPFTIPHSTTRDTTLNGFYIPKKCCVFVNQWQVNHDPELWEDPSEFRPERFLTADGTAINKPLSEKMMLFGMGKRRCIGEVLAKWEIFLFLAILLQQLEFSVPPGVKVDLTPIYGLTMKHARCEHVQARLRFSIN
Briefly: Inhibition of CYP1A2 (unknown origin) using Phenacetin as cocktail probe substrate at 10 uM preincubated for 20 mins followed by substrate addition and measured after 20 mins by LC-MS/MS analysis relative to control. Type of data set: ADME. To be noted: time 40 min.

The next data set has as its target CYP2C9 (Homo sapiens, UniProt P11712). The data set can be described thus: Inhibition of CYP2C9 (unknown origin) using tolbutamide as cocktail probe substrate at 10 uM preincubated for 20 mins followed by substrate addition and measured after 20 mins by LC-MS/MS analysis relative to control. In kind it is ADME. To be noted: time 40 min.
The target of a further data set is CYP2C19 (Homo sapiens, UniProt P33261). The data set can be described thus: Inhibition of CYP2C19 (unknown origin) using cocktail of probe as substrate at 10 uM preincubated for 20 mins followed by substrate addition and measured after 20 mins by LC-MS/MS analysis relative to control. Type of data set: ADME. Conditions: time 40 min.
Another data set deals with CYP2D6 (Homo sapiens, UniProt P10635). The data set can be described thus: Inhibition of CYP2D6 (unknown origin) using dextromethorphan as cocktail probe substrate at 10 uM preincubated for 20 mins followed by substrate addition and measured after 20 mins by LC-MS/MS analysis relative to control. Conditions: time 40 min. In kind it is ADME.
A short description of data set [4]: Protein binding in human plasma by LC-MS/MS based equilibrium dialysis method. In kind it is ADME, cell-free. To be noted: read-out: PPB (converted). In general terms: In equilibrium dialysis free small molecules cross a membrane that holds back macromolecules.
Data set [5] is described as follows: Protein binding in rat plasma by LC-MS/MS based equilibrium dialysis method. In kind it is ADME, cell-free. Conditions: read-out: PPB (converted).
A short description of data set [6]: Permeability across apical to basolateral side in human Caco-2 cells at pH 7.4 by LC-MS/MS analysis. In kind it is ADME, cell-based. Conditions: Caco-2, pH 7.4, read-out: permeability.
A short description of data set [7]: Metabolic stability in human liver microsomes assessed as intrinsic clearance by LC-MS/MS analysis. Type of data set: ADME, Microsome. Conditions: read-out: CLH.
Data set [8] is described as follows: AUC (0 to 24 hrs) in Sprague-Dawley rat at 10 mg/kg, po measured upto 24 hrs by LC-MS/MS analysis. Type of data set: ADME, organism-based. On the set-up: route oral, dose 10 mg/kg, time <=24. To be noted: in vivo.
Data set [9] can be described thus: Clearance in Sprague-Dawley rat at 2 mg/kg, iv measured upto 24 hrs by LC-MS/MS analysis. In kind it is ADME, organism-based. Conditions: in vivo.
Data set [10] in a line: Volume of distribution at steady state in Sprague-Dawley rat at 2 mg/kg, iv measured upto 24 hrs by LC-MS/MS analysis. In kind it is ADME, organism-based. To be noted: in vivo, read-out: Vdss.
Data set [11] concerns the target T2, Receptor-interacting serine/threonine-protein kinase 1 (Homo sapiens, UniProt Q13546).
T2 sequence (Q13546 whole entry): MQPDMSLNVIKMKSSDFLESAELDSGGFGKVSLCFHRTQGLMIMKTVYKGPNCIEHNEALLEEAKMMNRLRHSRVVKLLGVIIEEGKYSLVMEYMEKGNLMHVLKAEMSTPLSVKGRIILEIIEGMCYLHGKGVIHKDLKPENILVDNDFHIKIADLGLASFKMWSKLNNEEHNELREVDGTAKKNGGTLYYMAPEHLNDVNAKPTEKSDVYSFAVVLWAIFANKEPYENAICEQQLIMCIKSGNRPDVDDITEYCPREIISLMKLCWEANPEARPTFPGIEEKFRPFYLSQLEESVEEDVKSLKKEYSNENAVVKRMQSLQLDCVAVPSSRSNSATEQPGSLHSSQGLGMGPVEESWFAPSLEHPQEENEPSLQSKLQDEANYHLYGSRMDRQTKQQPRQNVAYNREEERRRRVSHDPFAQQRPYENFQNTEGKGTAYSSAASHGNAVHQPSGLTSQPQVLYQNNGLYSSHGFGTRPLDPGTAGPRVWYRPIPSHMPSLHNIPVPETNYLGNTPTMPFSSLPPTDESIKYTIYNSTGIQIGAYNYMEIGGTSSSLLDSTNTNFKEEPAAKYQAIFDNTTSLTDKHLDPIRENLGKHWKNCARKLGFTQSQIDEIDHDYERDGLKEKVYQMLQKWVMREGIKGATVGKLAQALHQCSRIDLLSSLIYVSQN
Briefly: Binding affinity to wild-type human partial length RIPK1 (M1 to K305 residues) expressed in bacterial expression system measured after 1 hr by Kinomescan method.

The target of data set [12] is T2, Receptor-interacting serine/threonine-protein kinase 1. The data set can be described thus: Inhibition of RIPK1 (unknown origin) using MBP and ATP as substrate preincubated for 10 mins followed by substrate addition and measured after 120 mins by ADP-Glo luminescence assay.
Data set [13] is described as follows: Toxicity in C57BL/6J mouse assessed as effect on heart morphological changes at 5 to 25 mg/kg, po administered daily for 7 days by Hand E staining method. Type of data set: organism-based. Conditions: in vivo, 168 h, dose 5-25 mg/kg, time 7 day.
Data set [14] is described as follows: Toxicity in C57BL/6J mouse assessed as effect on kidney morphological changes at 5 to 25 mg/kg, po administered daily for 7 days by H and E staining method. Conditions: in vivo, 168 h, dose 5-25 mg/kg, time 7 day. Type of data set: organism-based.
Data set [15] is described as follows: Half life in Sprague-Dawley rat at 2 mg/kg, iv measured upto 24 hrs by LC-MS/MS analysis. In kind it is ADME, organism-based. Conditions: in vivo.
The nature of data set [16]: Half life in Sprague-Dawley rat at 10 mg/kg , po measured upto 24 hrs by LC-MS/MS analysis. In kind it is ADME, organism-based. To be noted: in vivo.
The nature of data set [17]: Cmax in Sprague-Dawley rat at 10 mg/kg, po measured upto 24 hrs by LC-MS/MS analysis. In kind it is ADME, organism-based. On the set-up: route oral, dose 10 mg/kg, time <=24. To be noted: in vivo.
Data set [18] in a line: AUC (0 to 24 hrs) in Sprague-Dawley rat at 2 mg/kg, iv measured upto 24 hrs by LC-MS/MS analysis. In kind it is ADME, organism-based. On the set-up: route intravenous, dose 2 mg/kg, time <=24. To be noted: in vivo.
Data set [19] can be described thus: Fraction unbound clearance in Sprague-Dawley rat. Type of data set: ADME.

Sequence of Voltage-gated inwardly rectifying potassium channel KCNH2 (Q12809 whole entry): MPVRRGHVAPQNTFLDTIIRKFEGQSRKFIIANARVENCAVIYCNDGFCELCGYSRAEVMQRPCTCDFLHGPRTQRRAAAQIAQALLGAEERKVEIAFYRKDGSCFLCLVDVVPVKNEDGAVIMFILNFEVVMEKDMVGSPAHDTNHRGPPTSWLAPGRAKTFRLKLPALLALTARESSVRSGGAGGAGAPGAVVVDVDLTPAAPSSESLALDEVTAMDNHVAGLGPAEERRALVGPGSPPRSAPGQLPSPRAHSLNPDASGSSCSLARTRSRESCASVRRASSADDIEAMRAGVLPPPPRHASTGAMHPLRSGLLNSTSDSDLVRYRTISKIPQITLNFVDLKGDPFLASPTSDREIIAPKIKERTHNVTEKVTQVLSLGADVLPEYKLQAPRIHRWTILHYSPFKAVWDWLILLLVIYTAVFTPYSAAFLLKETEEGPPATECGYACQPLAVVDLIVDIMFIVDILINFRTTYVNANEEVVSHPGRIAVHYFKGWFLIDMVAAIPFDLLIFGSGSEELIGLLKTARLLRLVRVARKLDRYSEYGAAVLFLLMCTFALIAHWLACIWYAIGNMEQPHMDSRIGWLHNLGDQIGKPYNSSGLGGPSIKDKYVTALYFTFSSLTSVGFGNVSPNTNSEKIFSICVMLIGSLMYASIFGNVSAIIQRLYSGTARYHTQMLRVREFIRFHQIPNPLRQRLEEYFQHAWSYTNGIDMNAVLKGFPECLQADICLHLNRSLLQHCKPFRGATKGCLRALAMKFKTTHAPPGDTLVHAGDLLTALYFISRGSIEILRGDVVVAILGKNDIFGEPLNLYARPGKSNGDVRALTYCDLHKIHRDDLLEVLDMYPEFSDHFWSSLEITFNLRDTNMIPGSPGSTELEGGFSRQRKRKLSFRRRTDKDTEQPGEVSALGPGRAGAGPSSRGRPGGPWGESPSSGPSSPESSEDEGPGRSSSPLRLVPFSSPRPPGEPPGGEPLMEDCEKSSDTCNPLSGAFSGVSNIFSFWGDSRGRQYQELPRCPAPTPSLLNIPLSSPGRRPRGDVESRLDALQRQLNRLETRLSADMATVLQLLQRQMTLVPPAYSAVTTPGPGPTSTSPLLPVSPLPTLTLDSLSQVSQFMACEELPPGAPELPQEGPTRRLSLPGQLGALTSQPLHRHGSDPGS
Sequence of CYP2C9 (P11712 whole entry): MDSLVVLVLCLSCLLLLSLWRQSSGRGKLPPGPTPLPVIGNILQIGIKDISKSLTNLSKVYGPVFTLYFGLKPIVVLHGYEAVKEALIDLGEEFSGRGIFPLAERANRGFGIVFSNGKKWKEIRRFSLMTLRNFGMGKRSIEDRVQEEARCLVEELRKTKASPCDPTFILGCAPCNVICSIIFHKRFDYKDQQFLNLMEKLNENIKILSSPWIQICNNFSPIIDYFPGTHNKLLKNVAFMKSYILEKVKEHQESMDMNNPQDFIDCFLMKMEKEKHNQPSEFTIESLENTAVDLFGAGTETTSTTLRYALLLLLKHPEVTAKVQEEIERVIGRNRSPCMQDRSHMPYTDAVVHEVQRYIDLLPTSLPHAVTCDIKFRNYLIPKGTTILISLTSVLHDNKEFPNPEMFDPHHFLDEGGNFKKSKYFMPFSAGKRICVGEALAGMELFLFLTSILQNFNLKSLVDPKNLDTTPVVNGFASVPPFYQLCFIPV
Sequence of CYP2D6 (P10635 whole entry): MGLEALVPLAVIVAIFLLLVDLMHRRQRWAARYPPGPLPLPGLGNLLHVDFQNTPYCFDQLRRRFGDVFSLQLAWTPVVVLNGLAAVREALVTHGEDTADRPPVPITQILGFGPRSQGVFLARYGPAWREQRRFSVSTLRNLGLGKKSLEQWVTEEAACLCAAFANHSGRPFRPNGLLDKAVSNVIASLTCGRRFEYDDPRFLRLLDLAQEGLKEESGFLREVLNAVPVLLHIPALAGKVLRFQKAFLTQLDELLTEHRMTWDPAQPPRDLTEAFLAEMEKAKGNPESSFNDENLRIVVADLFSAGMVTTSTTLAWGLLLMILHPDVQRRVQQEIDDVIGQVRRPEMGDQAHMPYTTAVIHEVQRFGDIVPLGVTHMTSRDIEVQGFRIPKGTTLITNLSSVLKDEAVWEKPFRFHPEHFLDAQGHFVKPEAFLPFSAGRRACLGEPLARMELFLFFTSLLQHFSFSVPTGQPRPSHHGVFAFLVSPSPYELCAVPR
Sequence of CYP2C19 (P33261 whole entry): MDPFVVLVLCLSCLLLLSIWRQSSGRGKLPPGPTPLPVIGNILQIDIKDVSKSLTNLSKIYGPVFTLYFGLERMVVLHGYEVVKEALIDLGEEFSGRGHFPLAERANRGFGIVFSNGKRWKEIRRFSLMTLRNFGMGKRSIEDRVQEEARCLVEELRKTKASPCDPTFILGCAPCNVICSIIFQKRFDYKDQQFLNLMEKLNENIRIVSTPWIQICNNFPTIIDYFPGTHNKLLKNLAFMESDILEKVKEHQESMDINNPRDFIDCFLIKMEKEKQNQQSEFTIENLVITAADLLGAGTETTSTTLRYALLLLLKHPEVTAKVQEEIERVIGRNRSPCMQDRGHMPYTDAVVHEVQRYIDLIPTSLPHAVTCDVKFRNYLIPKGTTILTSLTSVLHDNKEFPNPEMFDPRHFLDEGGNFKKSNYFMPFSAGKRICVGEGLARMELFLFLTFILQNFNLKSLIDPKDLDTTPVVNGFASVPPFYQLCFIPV

What is called Cmax is the maximum level reached in the sampled fluid or tissue. What is called EC50 is the concentration needed to bring the measured effect to its halfway point. For orientation: efflux ratio means a quotient of directional permeabilities that is used to spot active efflux. A word on the IC50: it is the concentration that inhibits the measured activity by half. The inhibition is how much of the control response was suppressed. The low end stands for little suppression, the high end for strong suppression. The AUC is concentration integrated over time. A high value points to high exposure. For orientation: clearance means the rate of elimination divided by the concentration. Read a high clearance as a high capacity for elimination. By Kd is commonly meant a measure of binding affinity in units of concentration. Broadly, the half-life is the time in which the quantity being followed falls by half. Turning to `Cc1ncc(-c2ccc3nc(NC(=O)C4CC4)sc3c2)cc1NC(=O)OC1CCOCC1`, the figures for the Cmax in data set [1] and in data set [17] were 1330 ng/mL and 1240 ng/mL, respectively. In addition, the EC50 in the data set on HT-29 stood at 17 nM. In addition, in data set [2], the efflux ratio was determined as 1.1. Moreover, the values for the IC50 in data set [3] and in [12] were > 30000 nM and 67 nM, respectively. Also, the inhibition at 20 min, 10 µM at CYP1A2 came out at 16%; at CYP2C9, 62%; against CYP2C19 it was 41%; on CYP2D6, 21%. Besides, the fraction unbound was 0.016 in data set [4] and 0.018 in data set [5]. In addition, the Papp A→B in [6] is 33 ×10⁻⁶ cm/s. In addition, the CLint scaled in data set [7] stood at 49 mL/min/kg. Also, the AUC in [8] and in data set [18] was 1208 ng·h/mL in each case. Moreover, the clearance in data set [9] worked out at 33 mL/min/kg. The Vd in [10] was determined as 2.4 L/kg. For the same molecule, binding in data set [11] was put at a Kd of 9.2 nM. Moreover, the Activity entry in data set [13] and in data set [14] was “Non-Toxic” each time. Besides, the half-life in [15] is 1 h; in data set [16] it was 1.7 h. This molecule registered a CL free in data set [19] of 183 mL/min/kg.
